According to patent US8969861B2, “Method of manufacturing organic electroluminescence display device” (Canon Kabushiki Kaisha, priority 2012, dated 2015):

Experiments:
Type in all cases: physicochemical
[1] = Etching (dissolution) rate of deposited layers in IPA/water mixed solvent; settings: IPA 60 wt %; for etching rate of the layer: identical etching conditions
Description: In the present invention, a larger etching rate means a higher dissolution rate. In addition, a larger etching rate means a higher solubility of a layer having a material of interest in the solvent (polar solvent). FIG. 3 is a graph showing thickness changes in the compound 1 and the compound A2 over an etching time. […] On the other hand, the thickness of a layer (layer B) formed of the compound A2 as a heterocyclic compound reduces over time. When the etching rates of the respective layers are calculated with their etching conditions made identical to each other, the etching rate of the layer A is 0.008 nm/sec but the etching rate of the layer B is 0.87 nm/sec, that is, a ratio of the latter to the former is about 100.

[2] = Solubility in IPA/water mixed solvent (FIG. 4); settings: IPA concentration of 80 wt %
Description: The solubility of a compound as a constituent material for each layer in the IPA/water mixed solvent varies depending on the weight ratio of IPA in the mixed solvent. FIG. 4 is a graph showing the solubilities of the compound 1 (fused polycyclic hydrocarbon compound) and the compound A2 (heterocyclic compound) in the IPA/water mixed solvent (polar solvent). Here, in the graph of FIG. 4, the axis of abscissa indicates the weight percent concentration of IPA in the IPA/water mixed solvent, and the axis of ordinate indicates the amount of the fused polycyclic hydrocarbon compound or heterocyclic compound to dissolve in 1 g of the solvent.

[3] = Etching of sacrificial layer by spin washing method (FIG. 6); settings: 60-wt % aqueous solution of IPA; thickness by spectroscopic ellipsometer
Description: The spin washing method involves first dropping a polar solvent 81 onto the sacrificial layer 30 (FIG. 5B), holding the resultant for a predetermined time period (FIG. 5C), then rotating the substrate 10 to splash the polar solvent 81, and drying the substrate 10 by means of the rotation (FIG. 5D). The spin washing method in which the process illustrated in FIGS. 5A to 5D is defined as one cycle is typically repeated a plurality of times. It is to be noted that the polar solvents 81 to be used in the cycle to be performed a plurality of times may be the same every time, or mixed solvents having different compositional ratios may be used in part of the times or every time.
(§1) FIG. 6 is a graph showing a relationship between the total time of etching by the spin washing method and the thickness of the sacrificial layer formed of the compound A2. It is to be noted that in the graph of FIG. 6, the compound A2 is used as a constituent material for the sacrificial layer 30 and a 60-wt % aqueous solution of IPA is used as a polar solvent. […] The thickness of the sacrificial layer was measured with a spectroscopic ellipsometer (HORIBA). […] Although the graph shown in FIG. 6 is merely a specific example, the number of repetition of the process based on the spin washing method can be decided by utilizing the quantitative tendency of the sacrificial layer 30 to reduce shown in FIG. 6.

[4] = Etching of sacrificial layer by dipping method (FIG. 9); settings: 60-wt % aqueous solution of IPA; thickness by spectroscopic ellipsometer
Description: The dipping method is a method involving loading the substrate 10 in a container storing the polar solvent, dipping the substrate 10 in the polar solvent for a certain time period, and then taking the substrate 10 out of the container. Upon dipping of the substrate 10 in the polar solvent, (at least part of) the sacrificial layer 30 is eluted. At this time, when the concentration of the water-soluble polymer material constituting the intermediate layer 40, which can be dissolved together with the sacrificial layer 30, in the polar solvent is low, the polar solvent can be reused as the polar solvent to be used in first dipping.
The dipping method is performed by, for example, a method to be described below. […]
as §1, with “9” for “6”, “dipping” for “spin washing”, “A2.” for “A2. It is to be noted that in the graph of FIG. 6, the compound A2 is used as a constituent material for the sacrificial layer 30 and a 60-wt % aqueous solution of IPA is used as a polar solvent.”, “9. […]” for “6.”

## CC1(C)c2cc(-c3ccc4ccc5cccc6ccc3c4c56)ccc2-c2ccc(-c3ccc4ccc5cccc6ccc3c4c56)cc21 [compound 1]
[1]
  etching rate of the layer: 0.008 nm/s
[2]
  amount dissolving in 1 g of the IPA/water mixed solvent: 5 µg

## CC1(C)c2ccccc2-c2ccc(-c3ccc4ccc5ccc(-c6ccc7c(c6)C(C)(C)c6ccccc6-7)nc5c4n3)cc21 [compound A2]
[3]
  rate at which the sacrificial layer is etched by one spin washing: about 6.7 nm
[4]
  rate at which the sacrificial layer was etched by the dipping method: 3.7 nm/time
[1]
  ratio of etching rate of layer B (compound A2) to layer A (compound 1): about 100
  etching rate of the layer: 0.87 nm/s
[2]
  amount dissolving in 1 g of the IPA/water mixed solvent: 73 µg
